The values below come from patent US8492328B2, “Biomarkers and methods for determining sensitivity to insulin growth factor-1 receptor modulators” (Bristol-Myers Squibb Company, priority 2007, dated 2013).

Structures are written as SMILES.

The test system of one experiment is CTR. The experiment is described as follows: In vitro cellular proliferation assay ([3H]-thymidine incorporation). It counts as cell-based, human. Here is the method: (§1) All pediatric sarcoma and neuroblastoma cell lines were obtained from Dr. Lee Helman at NIH. All cell lines were grown in RPMI medium supplemented with Glutamax (Gibco/Invitrogen #61870-036), 10% inactivated fetal bovine serum (Gibco/Invitrogen #16140-071), 10 mM Hepes, penicillin and streptomycin.
(§2) Cells were plated at an optimized density for each cell line per well in 96-well microtiter Falcon plates, incubated overnight, and then exposed to a serial dilution of drug. After 72 hours incubation with drug at 37° C., cells were pulsed with 4 μCi/ml [6-3H] thymidine (Amersham Pharmacia Biotech, UK) for 3 hours, trypsinized, harvested onto UniFilter-96, GF/B plates (PerkinElmer, Boston, Mass.) and scintillation was measured on a TopCount NXT (Packard, Conn.). Results were expressed as an IC50, which is the drug concentration required to inhibit cell proliferation by 50% to that of untreated control cells. The mean IC50 and standard deviation (SD) from multiple tests for each cell line were calculated.

The subject of another experiment is Rh36. The experiment is described as above. It counts as cell-based, human. The conditions noted are these: Rh36 (Rhabdomyosarcoma). The protocol:
as §1, §2

The subject of the next experiment is VW. The experiment is described as above. It counts as cell-based, human. The following applies: VW (Ewing). The protocol:
as §1, §2

In the next experiment the test system is RD-1 cells. Kind of experiment: In vitro cellular proliferation assay, parental sensitive RD-1. The conditions noted are these: Homo sapiens, RD1; sensitive parental RD-1 (RMS) cells. It counts as cell-based. The protocol:
as §1, §2
(§3) Acquired resistance to anti-cancer agents is a major clinical problem. […] In order to identify markers that may contribute to acquired resistance to the IGF1R inhibitor, global gene expression profiles for both parental RD1 and resistant RD1 were analyzed using Affymetrix gene chip. […]

The test system of another experiment is RD1-Resist cells. The experiment is described as follows: In vitro cellular proliferation assay, compound 1 acquired resistant RD1. The conditions noted are these: Homo sapiens. It counts as cell-based. Here is the method: as §1, §2, §3
The next experiment has as its system Rh41 cells. Kind of experiment: Gene expression profiling of cells with compound 1 treatment. It counts as cell-based, human.
The mark [1] stands for this setting: Homo sapiens, 72 hours with drug, read-out: IC50.

As for `Cc1cc(N2CCOCC2)cc2[nH]c(-c3c(NC[C@@H](O)c4cccc(Cl)c4)cc[nH]c3=O)nc12` [Compound 1, (S)-4-(2-(3-chlorophenyl)-2-hydroxyethylamino)-3-(4-methyl-6-morpholino-1H-benzo[d]imidazol-2-yl)-pyridin-2(1-H)-one], the “sensitivity/resistance classification in words” value in the experiment with CTR (CTR) is given as “resistant”. The “Sensitivity Classification” value with CTR (CTR (Rhabdomyosarcoma)) was “R (“R” means resistant to the corresponding compounds.)”; in the experiment with Rh36 it was “R (“R” means resistant to the corresponding compounds.)”; in the experiment with VW, “S (“S” means sensitive)”. The half-inhibitory concentration (IC50) – broadly, the concentration that gives 50% inhibition – was 370 nM in the experiment on CTR (Homo sapiens, CTR (Rhabdomyosarcoma), 72 hours with drug, read-out: IC50); 1600 nM in the experiment with Rh36 (setting [1]); 101 nM in the experiment on VW (setting [1]); 238 nM in the experiment on RD-1 cells; 2000 nM with RD1-Resist cells; 2000 nM in the experiment on RD1-Resist cells (RD1, acquired resistant RD-1 cells). Also, the Ki-67 expression entry with Rh41 cells (compound 1 treated cells) was “Remarkable but not complete decrease”. Moreover, the “expression of programmed cell death 4 (PDCD4)” value with Rh41 cells (sensitive Rh41 cells) is listed as “up-regulated”. Moreover, in the experiment on Rh41 cells (sensitive Rh41 cells, especially at 36 and 72 hours), the “expression level of survivin” value is “significantly reduced”. The “genes with significant expression changes upon the drug treatment” value in the experiment with Rh41 cells (sensitive cell Rh41) was 30%.
